Test results taken from ChEMBL document CHEMBL4680228 (Eur J Med Chem, 2020).
Calls of active or inactive are those of the source. The rule behind the calls is not given here.

How the values were obtained:
NCI-H69 = experiment: Antiproliferative activity against human NCI-H69 cells assessed as inhibition of cell proliferation; type: functional, cell-based
SR = experiment: Antiproliferative activity against human SR cells assessed as reduction in cell growth; type: functional, cell-based
EML4-ALK = EML4-ALK (Homo sapiens, UniProt Q9UM73, G1202R); experiment: Inhibition of EML4-ALK G1202R mutant fusion protein (unknown origin) expressed in HEK293T cells; type: cell-based
[1] = target: T1, von Hippel-Lindau disease tumor suppressor/ALK tyrosine kinase receptor/Nucleophosmin (Homo sapiens, UniProt Q9UM73+P06748+P40337); experiment: Protac activity at VHL/NPM-ALK fusion protein in human SR cells assessed as degradation of ALK; type: cell-based
[2] = target: T1, von Hippel-Lindau disease tumor suppressor/ALK tyrosine kinase receptor/Nucleophosmin; experiment: Protac activity at VHL/NPM-ALK fusion protein in human SR cells assessed as degradation of ALK measured after 16 hrs in presence of proteasome inhibitor MG132; type: cell-based
Target sequence in this assay (P06748 whole entry partner, the tested form may be a part): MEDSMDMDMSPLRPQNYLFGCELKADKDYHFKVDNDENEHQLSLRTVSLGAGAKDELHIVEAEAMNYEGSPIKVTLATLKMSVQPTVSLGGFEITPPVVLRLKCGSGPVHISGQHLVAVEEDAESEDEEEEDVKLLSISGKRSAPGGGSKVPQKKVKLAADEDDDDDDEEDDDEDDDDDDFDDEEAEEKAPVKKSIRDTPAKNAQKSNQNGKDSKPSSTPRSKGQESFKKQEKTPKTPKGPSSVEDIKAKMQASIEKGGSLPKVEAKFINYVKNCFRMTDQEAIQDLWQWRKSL
Target sequence in this assay (P40337 whole entry partner, the tested form may be a part): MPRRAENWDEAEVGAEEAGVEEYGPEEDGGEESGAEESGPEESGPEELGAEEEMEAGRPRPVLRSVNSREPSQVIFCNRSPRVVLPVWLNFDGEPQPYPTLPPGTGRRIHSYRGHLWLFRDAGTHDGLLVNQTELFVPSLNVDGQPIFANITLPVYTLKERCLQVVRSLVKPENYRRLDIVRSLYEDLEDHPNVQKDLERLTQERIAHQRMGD
Target sequence in this assay (Q9UM73 19-1620 limits assumed): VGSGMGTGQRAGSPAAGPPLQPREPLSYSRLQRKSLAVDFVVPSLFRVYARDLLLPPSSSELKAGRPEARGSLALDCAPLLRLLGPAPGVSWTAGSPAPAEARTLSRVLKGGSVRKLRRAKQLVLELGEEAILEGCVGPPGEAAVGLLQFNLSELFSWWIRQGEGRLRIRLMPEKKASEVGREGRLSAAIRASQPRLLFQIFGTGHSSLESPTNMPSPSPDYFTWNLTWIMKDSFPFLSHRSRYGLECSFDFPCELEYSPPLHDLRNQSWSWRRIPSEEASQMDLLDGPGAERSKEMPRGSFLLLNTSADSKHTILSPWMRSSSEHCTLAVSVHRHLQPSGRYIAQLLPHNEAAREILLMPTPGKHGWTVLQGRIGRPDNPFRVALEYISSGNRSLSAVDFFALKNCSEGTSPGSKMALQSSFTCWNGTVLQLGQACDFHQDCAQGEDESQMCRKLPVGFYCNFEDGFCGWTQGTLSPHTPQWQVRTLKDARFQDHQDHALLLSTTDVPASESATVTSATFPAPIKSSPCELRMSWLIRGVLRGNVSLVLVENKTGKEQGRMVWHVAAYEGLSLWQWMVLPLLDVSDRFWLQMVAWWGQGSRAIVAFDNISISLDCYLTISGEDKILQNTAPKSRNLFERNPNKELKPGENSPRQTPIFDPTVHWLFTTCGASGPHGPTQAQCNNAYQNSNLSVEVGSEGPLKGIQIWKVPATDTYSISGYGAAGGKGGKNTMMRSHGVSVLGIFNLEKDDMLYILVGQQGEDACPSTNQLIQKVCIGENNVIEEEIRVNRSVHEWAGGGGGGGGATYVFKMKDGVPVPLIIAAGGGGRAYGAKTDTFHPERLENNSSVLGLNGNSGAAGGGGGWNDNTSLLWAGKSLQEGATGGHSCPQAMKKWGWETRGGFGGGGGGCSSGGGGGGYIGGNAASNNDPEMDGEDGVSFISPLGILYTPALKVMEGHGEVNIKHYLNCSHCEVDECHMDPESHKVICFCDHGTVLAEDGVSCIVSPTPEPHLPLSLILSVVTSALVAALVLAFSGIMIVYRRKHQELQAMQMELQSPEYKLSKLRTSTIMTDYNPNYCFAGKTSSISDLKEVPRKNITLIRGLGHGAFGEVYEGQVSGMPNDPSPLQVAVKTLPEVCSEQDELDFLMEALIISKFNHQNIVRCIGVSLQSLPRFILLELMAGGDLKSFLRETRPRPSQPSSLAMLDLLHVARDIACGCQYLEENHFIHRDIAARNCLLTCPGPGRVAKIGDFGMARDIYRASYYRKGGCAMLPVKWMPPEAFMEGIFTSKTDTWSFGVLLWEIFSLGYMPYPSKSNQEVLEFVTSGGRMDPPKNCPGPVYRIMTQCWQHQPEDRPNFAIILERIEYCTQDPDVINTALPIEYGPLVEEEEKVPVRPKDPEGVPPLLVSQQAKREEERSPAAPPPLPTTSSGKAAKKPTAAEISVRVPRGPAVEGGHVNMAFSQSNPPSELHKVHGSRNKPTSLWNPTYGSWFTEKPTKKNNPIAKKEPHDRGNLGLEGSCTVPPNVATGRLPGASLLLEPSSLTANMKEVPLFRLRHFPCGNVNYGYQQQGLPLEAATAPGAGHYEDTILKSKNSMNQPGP

[3] = target: von Hippel-Lindau disease tumor suppressor/ALK tyrosine kinase receptor/Echinoderm microtubule-associated protein-like 4 (Homo sapiens, UniProt P40337+Q9HC35+Q9UM73, G1202R)
[4] = target: von Hippel-Lindau disease tumor suppressor/Proto-oncogene tyrosine-protein kinase ROS (Homo sapiens) (UniProt P08922+P40337); experiment: Protac activity at VHL/ROS1 in human SR cells assessed as induction of ROS1 degradation; type: cell-based
[5] = target: von Hippel-Lindau disease tumor suppressor/Cyclin-G-associated kinase (Homo sapiens) (UniProt O14976+P40337); experiment: Protac activity at VHL/GAK in human SR cells assessed as induction of GAK degradation; type: cell-based
[6] = target: von Hippel-Lindau disease tumor suppressor/Uridine-cytidine kinase 2 (Homo sapiens) (UniProt Q9BZX2+P40337); experiment: Protac activity at VHL/UCK2 in human SR cells assessed as induction of UCK2 degradation; type: cell-based
[7] = target: von Hippel-Lindau disease tumor suppressor/ALK tyrosine kinase receptor/Echinoderm microtubule-associated protein-like 4 (Homo sapiens, UniProt Q9UM73+Q9HC35+P40337, G1202R); experiment: Protac activity at VHL/EML4-ALK G1202R mutant fusion protein (unknown origin) expressed in HEK293T cells assessed as induction of ALK degradation by Western blot analysis; type: cell-based
[8] = target: T1, von Hippel-Lindau disease tumor suppressor/ALK tyrosine kinase receptor/Nucleophosmin; experiment: Protac activity at VHL/NPM-ALK fusion protein in human SR cells assessed as reduction in ALK phosphorylation at 10 nM; type: cell-based
Target sequence in this assay (P06748 whole entry partner, the tested form may be a part): as the sequence (P06748 whole entry partner, the tested form may be a part) above
Target sequence in this assay (P40337 whole entry partner, the tested form may be a part): as the sequence (P40337 whole entry partner, the tested form may be a part) above
Target sequence in this assay (Q9UM73 19-1620 limits assumed): as the sequence (Q9UM73 19-1620 limits assumed) above

[9] = target: T1, von Hippel-Lindau disease tumor suppressor/ALK tyrosine kinase receptor/Nucleophosmin; experiment: Protac activity at VHL/NPM-ALK fusion protein in human SR cells assessed as reduction in STAT3 phosphorylation at 1 to 500 nM; type: cell-based; conditions: dose 1-500 nM
Target sequence in this assay (P06748 whole entry partner, the tested form may be a part): as the sequence (P06748 whole entry partner, the tested form may be a part) above
Target sequence in this assay (P40337 whole entry partner, the tested form may be a part): as the sequence (P40337 whole entry partner, the tested form may be a part) above
Target sequence in this assay (Q9UM73 19-1620 limits assumed): as the sequence (Q9UM73 19-1620 limits assumed) above

[10] = target: T1, von Hippel-Lindau disease tumor suppressor/ALK tyrosine kinase receptor/Nucleophosmin; experiment: Protac activity at VHL/NPM-ALK fusion protein in human SR cells assessed as degradation of ALK at 100 nM; type: cell-based; conditions: TDE = time-dependent effect
Target sequence in this assay (P06748 whole entry partner, the tested form may be a part): as the sequence (P06748 whole entry partner, the tested form may be a part) above
Target sequence in this assay (P40337 whole entry partner, the tested form may be a part): as the sequence (P40337 whole entry partner, the tested form may be a part) above
Target sequence in this assay (Q9UM73 19-1620 limits assumed): as the sequence (Q9UM73 19-1620 limits assumed) above

NCI-H2228 = experiment: Antiproliferative activity against human NCI-H2228 cells expressing EML4-ALK assessed as reduction in cell viability incubated for 72 hrs by CCK8 assay; type: functional, cell-based; conditions: NCI-H2228, 72 h
[11] = target: von Hippel-Lindau disease tumor suppressor/ALK tyrosine kinase receptor/Echinoderm microtubule-associated protein-like 4 (Homo sapiens) (UniProt Q9UM73+Q9HC35+P40337); experiment: Protac activity at VHL/EML4-ALK fusion protein in human NCI-H2228 cells assessed as induction of ALK degradation at 50 to 500 nM; type: cell-based; conditions: dose 50-500 nM
[12] = target: von Hippel-Lindau disease tumor suppressor/Insulin-like growth factor 1 receptor (Homo sapiens) (UniProt P08069+P40337); experiment: Protac activity at VHL/IGF1R in human SR cells assessed as induction of IGF1R degradation; type: cell-based
von Hippel-Lindau disease tumor suppressor/Insulin-like growth factor 1 receptor (Homo sapiens), sequence (P08069 whole entry, looked up, the tested form may be a part): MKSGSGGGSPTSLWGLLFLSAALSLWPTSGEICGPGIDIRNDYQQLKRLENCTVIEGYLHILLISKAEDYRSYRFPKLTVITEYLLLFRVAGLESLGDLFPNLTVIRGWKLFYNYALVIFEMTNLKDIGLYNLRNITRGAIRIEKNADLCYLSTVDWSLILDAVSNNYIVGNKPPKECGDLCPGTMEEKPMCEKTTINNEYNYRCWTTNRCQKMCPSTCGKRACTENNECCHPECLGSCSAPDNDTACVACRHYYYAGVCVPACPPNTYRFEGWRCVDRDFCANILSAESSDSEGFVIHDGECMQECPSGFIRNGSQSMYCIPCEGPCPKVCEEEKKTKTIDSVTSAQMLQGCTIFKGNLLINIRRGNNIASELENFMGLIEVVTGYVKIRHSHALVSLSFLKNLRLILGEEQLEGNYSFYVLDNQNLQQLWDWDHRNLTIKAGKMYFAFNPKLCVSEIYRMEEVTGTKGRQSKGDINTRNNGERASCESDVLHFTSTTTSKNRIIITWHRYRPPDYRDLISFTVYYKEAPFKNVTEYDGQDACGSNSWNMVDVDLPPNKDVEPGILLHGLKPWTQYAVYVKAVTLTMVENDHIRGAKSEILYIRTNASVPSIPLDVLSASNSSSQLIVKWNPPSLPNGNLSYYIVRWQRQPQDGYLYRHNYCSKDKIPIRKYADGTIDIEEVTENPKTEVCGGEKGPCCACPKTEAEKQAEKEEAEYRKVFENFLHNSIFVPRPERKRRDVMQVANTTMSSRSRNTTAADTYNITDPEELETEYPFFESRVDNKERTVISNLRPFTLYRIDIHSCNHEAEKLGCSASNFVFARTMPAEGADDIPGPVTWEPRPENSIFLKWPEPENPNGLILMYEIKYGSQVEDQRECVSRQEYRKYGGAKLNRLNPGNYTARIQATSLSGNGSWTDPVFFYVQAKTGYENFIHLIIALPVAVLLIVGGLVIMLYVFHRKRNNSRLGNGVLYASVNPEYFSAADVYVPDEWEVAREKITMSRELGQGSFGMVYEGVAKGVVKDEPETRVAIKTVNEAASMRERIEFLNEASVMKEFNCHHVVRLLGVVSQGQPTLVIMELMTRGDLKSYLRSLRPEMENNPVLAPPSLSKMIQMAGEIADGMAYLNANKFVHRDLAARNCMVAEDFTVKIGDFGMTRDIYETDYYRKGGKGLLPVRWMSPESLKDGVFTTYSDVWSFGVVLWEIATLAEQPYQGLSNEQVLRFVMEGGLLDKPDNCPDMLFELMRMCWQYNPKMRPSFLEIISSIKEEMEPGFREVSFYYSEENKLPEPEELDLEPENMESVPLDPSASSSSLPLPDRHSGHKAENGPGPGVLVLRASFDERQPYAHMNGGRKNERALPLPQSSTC
von Hippel-Lindau disease tumor suppressor/Insulin-like growth factor 1 receptor (Homo sapiens), sequence (P40337 whole entry, looked up, the tested form may be a part): as the sequence (P40337 whole entry partner, the tested form may be a part) above

[13] = target: T1, von Hippel-Lindau disease tumor suppressor/ALK tyrosine kinase receptor/Nucleophosmin; experiment: Protac activity at VHL/NPM-ALK fusion protein in human SR cells assessed as induction of ALK degradation 100 nM treated for 24 hrs followed by compound washout and measured after 24 to 48 hrs by Western blot analysis; type: cell-based
Target sequence in this assay (P06748 whole entry partner, the tested form may be a part): as the sequence (P06748 whole entry partner, the tested form may be a part) above
Target sequence in this assay (P40337 whole entry partner, the tested form may be a part): as the sequence (P40337 whole entry partner, the tested form may be a part) above
Target sequence in this assay (Q9UM73 19-1620 limits assumed): as the sequence (Q9UM73 19-1620 limits assumed) above

cells = conditions: Homo sapiens, NCI-H1688
Description: Antiproliferative activity against human NCI-H1688 cells assessed as inhibition of cell proliferation

[14] = target: T1, von Hippel-Lindau disease tumor suppressor/ALK tyrosine kinase receptor/Nucleophosmin; experiment: Protac activity at VHL/NPM-ALK fusion protein in human SR cells assessed as degradation of ALK measured after 16 hrs in presence of proteasome inhibitor MLN4924; type: cell-based
Target sequence in this assay (P06748 whole entry partner, the tested form may be a part): as the sequence (P06748 whole entry partner, the tested form may be a part) above
Target sequence in this assay (P40337 whole entry partner, the tested form may be a part): as the sequence (P40337 whole entry partner, the tested form may be a part) above
Target sequence in this assay (Q9UM73 19-1620 limits assumed): as the sequence (Q9UM73 19-1620 limits assumed) above

[15] = target: von Hippel-Lindau disease tumor suppressor/Receptor-type tyrosine-protein kinase FLT3 (Homo sapiens) (UniProt P36888+P40337); experiment: Protac activity at VHL/FLT3 in human SR cells assessed as induction of FLT3 degradation; type: cell-based
[16] = target: von Hippel-Lindau disease tumor suppressor/Aurora kinase A (Homo sapiens) (UniProt O14965+P40337); experiment: Protac activity at VHL/Aurora A in human SR cells assessed as induction of Aurora A degradation; type: cell-based
von Hippel-Lindau disease tumor suppressor/Aurora kinase A (Homo sapiens), sequence (O14965 whole entry, looked up, the tested form may be a part): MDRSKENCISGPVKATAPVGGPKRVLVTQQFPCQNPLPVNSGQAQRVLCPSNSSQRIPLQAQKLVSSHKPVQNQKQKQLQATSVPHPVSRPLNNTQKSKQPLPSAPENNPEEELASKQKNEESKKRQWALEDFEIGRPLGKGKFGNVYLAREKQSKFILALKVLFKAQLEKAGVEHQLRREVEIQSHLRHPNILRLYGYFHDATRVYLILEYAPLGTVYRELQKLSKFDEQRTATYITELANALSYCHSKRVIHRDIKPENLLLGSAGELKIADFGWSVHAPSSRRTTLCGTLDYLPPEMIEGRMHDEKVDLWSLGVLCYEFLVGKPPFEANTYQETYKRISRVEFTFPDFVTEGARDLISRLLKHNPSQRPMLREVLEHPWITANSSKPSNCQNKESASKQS
von Hippel-Lindau disease tumor suppressor/Aurora kinase A (Homo sapiens), sequence (P40337 whole entry, looked up, the tested form may be a part): as the sequence (P40337 whole entry partner, the tested form may be a part) above

[17] = target: T1, von Hippel-Lindau disease tumor suppressor/ALK tyrosine kinase receptor/Nucleophosmin; experiment: Protac activity at VHL/NPM-ALK fusion protein in human SR cells assessed as reduction in ALK phosphorylation at 50 nM; type: cell-based; parameters: scale not given: the % may be the effect or the level left
[18] = target: T1, von Hippel-Lindau disease tumor suppressor/ALK tyrosine kinase receptor/Nucleophosmin; experiment: Protac activity at VHL/NPM-ALK fusion protein in human SR cells assessed as degradation of ALK at 100 nM measured after 24 hrs; type: cell-based

COc1cc(N2CCC(NC(=O)CCCCCCCCCC(=O)N[C@H](C(=O)N3C[C@H](O)C[C@H]3C(=O)NCc3ccc(-c4scnc4C)cc3)C(C)(C)C)CC2)ccc1Nc1ncc(Cl)c(Nc2ccccc2P(C)(C)=O)n1
IC50 (NCI-H69): 799 nM | IC50 (SR): 1.7 nM | IC50 (EML4-ALK): 146 nM | DC50 [1]: 7 nM | Activity [2]: inactive | IC50 [3]: 166 nM | Activity [4]: inactive | Activity [5]: inactive | Activity [6]: inactive | DC50 [7]: < 200 nM | Activity [8]: Active | Activity [9]: Active | Activity [10]: Tde | IC50 (NCI-H2228): 46 nM | Activity [11]: Active | Activity [12]: inactive | Activity [13]: Active | IC50 (cells): 259 nM | Activity [14]: inactive | Activity [15]: inactive | Activity [16]: inactive

COc1cc(N2CCC(NC(=O)CCCCCCCCCC(=O)N[C@H](C(=O)N3C[C@@H](O)C[C@H]3C(=O)NCc3ccc(-c4scnc4C)cc3)C(C)(C)C)CC2)ccc1Nc1ncc(Cl)c(Nc2ccccc2P(C)(C)=O)n1
IC50 (SR): 5.5 nM | IC50 [3]: 608 nM | Activity [17]: 100% | Activity [9]: Active | IC50 (NCI-H2228): 114 nM | Activity [18]: inactive
